In PMC10175918 (Communications Biology, 2023) one finds activation data, which are given here for 5 compounds.

Where two headings read alike, the source gives them in different places.

Test in all cases: TGFα-shedding assay-based GPCR screening with chimeric Gα subunit proteins
Common to all, as to assay type: cell-based

The target of assay [1] is T1, 348 GPCRs (Homo sapiens, UniProt P30411).
T1 sequence (P30411 1-391): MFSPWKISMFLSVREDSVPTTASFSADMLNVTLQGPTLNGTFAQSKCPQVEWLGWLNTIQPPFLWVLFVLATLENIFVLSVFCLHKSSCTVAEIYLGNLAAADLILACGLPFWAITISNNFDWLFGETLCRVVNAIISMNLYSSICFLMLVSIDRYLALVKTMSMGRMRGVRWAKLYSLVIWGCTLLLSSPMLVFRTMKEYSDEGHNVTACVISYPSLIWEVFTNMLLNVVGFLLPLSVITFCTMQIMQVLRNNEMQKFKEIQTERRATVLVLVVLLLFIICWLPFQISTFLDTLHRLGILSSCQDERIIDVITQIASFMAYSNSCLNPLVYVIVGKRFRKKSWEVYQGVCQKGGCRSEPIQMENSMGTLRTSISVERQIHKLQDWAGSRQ
The following applies: 10µM, Favipiravir 100μM.

For assay [2], the target named is T2, 348 GPCRs (Homo sapiens, UniProt Q8TDV0).
T2 construct: expressed in transfected cells; host or cells: HEK293A
T2 sequence (Q8TDV0 1-419): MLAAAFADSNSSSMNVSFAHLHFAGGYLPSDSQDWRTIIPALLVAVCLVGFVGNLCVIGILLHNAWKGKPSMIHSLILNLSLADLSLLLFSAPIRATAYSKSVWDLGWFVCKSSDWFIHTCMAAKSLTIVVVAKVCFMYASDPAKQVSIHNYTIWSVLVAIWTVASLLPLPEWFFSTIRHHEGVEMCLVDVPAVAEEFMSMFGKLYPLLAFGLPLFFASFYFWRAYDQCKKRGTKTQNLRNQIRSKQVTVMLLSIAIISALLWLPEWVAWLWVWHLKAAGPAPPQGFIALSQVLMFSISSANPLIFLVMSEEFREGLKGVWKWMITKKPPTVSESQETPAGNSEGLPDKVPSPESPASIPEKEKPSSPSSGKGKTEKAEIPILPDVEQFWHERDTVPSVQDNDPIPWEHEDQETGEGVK
Particulars: 10µM, Favipiravir 100μM.

Assay [3] addresses T3, 348 GPCRs (Homo sapiens, UniProt O00222).
T3 construct: expressed in transfected cells; host or cells: HEK293A
Particulars: 10µM, Favipiravir 100μM.

For assay [4], the target named is T4, 348 GPCRs (Homo sapiens, UniProt P08913).
T4 construct: expressed in transfected cells; host or cells: HEK293A
T4 sequence (P08913 1-465): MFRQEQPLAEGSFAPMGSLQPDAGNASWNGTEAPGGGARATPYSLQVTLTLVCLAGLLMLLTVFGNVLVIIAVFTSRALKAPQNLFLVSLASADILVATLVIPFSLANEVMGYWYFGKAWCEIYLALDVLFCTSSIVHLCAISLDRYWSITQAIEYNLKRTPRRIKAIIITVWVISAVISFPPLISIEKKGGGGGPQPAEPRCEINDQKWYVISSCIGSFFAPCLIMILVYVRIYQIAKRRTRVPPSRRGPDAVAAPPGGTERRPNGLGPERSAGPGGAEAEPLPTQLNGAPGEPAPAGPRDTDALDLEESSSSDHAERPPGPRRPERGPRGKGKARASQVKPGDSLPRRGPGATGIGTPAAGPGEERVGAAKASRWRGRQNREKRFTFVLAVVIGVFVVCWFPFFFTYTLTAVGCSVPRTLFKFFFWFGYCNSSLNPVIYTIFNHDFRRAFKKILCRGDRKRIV

Assay [5] deals with T5, 348 GPCRs (Homo sapiens, UniProt P60893).
T5 construct: expressed in transfected cells; host or cells: HEK293A
T5 sequence (P60893 whole entry): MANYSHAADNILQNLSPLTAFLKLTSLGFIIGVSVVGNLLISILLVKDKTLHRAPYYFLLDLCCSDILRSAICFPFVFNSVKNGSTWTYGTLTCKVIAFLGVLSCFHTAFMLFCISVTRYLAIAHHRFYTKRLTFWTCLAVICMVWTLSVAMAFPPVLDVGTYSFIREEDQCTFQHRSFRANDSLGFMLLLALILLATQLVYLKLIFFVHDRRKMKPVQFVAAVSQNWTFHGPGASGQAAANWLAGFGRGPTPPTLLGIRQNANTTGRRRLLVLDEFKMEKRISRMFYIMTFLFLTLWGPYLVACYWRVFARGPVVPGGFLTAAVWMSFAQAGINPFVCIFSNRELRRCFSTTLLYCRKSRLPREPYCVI
The following applies: 10µM, Favipiravir 100μM.

Assay [6] has as its target T6, 348 GPCRs (Homo sapiens, UniProt P46091).
T6 construct: expressed in transfected cells; host or cells: HEK293A
T6 sequence (P46091 1-355): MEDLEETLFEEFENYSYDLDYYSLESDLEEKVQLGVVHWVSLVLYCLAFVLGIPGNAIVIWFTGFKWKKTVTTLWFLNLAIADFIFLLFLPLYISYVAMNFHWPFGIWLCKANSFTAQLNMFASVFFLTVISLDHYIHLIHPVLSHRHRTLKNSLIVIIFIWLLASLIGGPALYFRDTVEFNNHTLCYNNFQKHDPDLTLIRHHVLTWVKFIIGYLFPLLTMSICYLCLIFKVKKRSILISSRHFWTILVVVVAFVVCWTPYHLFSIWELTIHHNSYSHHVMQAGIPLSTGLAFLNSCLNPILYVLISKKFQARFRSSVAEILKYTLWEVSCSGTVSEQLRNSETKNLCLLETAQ

The target in assay [7] is T7, 348 GPCRs (Homo sapiens, UniProt P30556).
T7 construct: expressed in transfected cells; host or cells: HEK293A
T7 sequence (P30556 1-359): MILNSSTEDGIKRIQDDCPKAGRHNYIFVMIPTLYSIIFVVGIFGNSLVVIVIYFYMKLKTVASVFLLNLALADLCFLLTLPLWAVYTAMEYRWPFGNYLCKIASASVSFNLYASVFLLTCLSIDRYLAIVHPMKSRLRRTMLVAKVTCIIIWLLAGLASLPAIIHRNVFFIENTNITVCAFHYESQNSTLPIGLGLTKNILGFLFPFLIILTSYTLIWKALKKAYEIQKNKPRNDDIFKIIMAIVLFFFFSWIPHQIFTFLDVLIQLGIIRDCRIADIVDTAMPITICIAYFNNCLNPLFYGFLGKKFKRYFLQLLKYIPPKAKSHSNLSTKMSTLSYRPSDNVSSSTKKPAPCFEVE
Particulars: 10µM, Favipiravir 100μM.

[8] abbreviates: B2 (bradykinin receptor B2), read-out: % GPCR activation compared to TPA.
The mark [9] stands for this setting: GPR151 (G Protein-Coupled Receptor 151), read-out: % GPCR activation compared to TPA.
[10] abbreviates: GRM8 (glutamate receptor, metabotropic 8), read-out: % GPCR activation compared to TPA.
The mark [11] stands for this setting: GPR85 (G protein-coupled receptor 85), read-out: % GPCR activation compared to TPA.
Setting [12] is: AGTR1 (angiotensin II receptor, type 1), read-out: % GPCR activation compared to TPA.
Where [13] appears, read: read-out: % GPCR activation compared to TPA, B2 (bradykinin receptor B2).
Setting [14] is: read-out: % GPCR activation compared to TPA, GPR151 (G Protein-Coupled Receptor 151).
Setting [15] is: read-out: % GPCR activation compared to TPA, GRM8 (glutamate receptor, metabotropic 8).
[16] abbreviates: read-out: % GPCR activation compared to TPA, GPCR α2A (adrenoceptor alpha 2A).
Setting [17] is: read-out: % GPCR activation compared to TPA, GPR85 (G protein-coupled receptor 85).
Setting [18] is: read-out: % GPCR activation compared to TPA, GPCR GPR1 (G protein-coupled receptor 1).
Where [19] appears, read: read-out: % GPCR activation compared to TPA, AGTR1 (angiotensin II receptor, type 1).
The mark [20] stands for this setting: GPCR α2A (adrenoceptor alpha 2A), read-out: % GPCR activation compared to TPA.
[21] abbreviates: GPCR GPR1 (G protein-coupled receptor 1), read-out: % GPCR activation compared to TPA.

T3 sequence (O00222 34-908): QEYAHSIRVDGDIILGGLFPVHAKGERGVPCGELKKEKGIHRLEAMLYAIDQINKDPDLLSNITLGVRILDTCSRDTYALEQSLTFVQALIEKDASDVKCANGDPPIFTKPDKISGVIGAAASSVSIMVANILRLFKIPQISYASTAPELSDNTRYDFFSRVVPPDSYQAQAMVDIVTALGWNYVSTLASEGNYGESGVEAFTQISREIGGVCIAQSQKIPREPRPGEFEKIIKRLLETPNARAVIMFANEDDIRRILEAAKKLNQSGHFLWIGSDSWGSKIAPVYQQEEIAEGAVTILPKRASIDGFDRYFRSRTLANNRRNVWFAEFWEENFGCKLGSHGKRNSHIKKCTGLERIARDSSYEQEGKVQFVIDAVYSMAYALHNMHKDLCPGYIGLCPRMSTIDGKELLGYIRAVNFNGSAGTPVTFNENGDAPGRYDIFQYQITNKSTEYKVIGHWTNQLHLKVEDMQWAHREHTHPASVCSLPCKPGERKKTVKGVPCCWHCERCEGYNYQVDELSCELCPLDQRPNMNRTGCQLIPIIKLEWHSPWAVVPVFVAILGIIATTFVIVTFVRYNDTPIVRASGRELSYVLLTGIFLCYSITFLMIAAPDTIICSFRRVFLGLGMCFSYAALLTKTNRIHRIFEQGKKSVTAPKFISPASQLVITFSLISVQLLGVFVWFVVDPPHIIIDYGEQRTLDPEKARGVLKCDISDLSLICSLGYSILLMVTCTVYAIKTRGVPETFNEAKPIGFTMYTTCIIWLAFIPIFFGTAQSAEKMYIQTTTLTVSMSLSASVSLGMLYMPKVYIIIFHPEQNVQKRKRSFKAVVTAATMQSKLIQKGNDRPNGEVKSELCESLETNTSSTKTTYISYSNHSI

As for `NC(=O)c1nc(F)cnc1O` [favipiravir, 6-fluoro-3-hydroxy-2-pyrazinecarboxamide], the activation at 10 µM was 1.08% at 348 GPCRs [1] (setting [8]), -0.974% on 348 GPCRs [2] (setting [9]), -1.56% at 348 GPCRs [3] (setting [10]) and 0.178% at 348 GPCRs [7] (setting [12]). Besides, the activation at 100 µM at 348 GPCRs [4] (GPCR α2A (adrenoceptor alpha 2A), 100μM, read-out: % GPCR activation compared to TPA) was 1.73%; on 348 GPCRs [5] (setting [11]) it was 3.44%; on 348 GPCRs [6] (GPCR GPR1 (G protein-coupled receptor 1), 100μM, read-out: % GPCR activation compared to TPA) it was -1.92%.

For the compound `CC(C)OC(=O)[C@H](C)N[P@](=O)(OC[C@H]1O[C@@H](n2ccc(=O)[nH]c2=O)[C@](C)(F)[C@@H]1O)Oc1ccccc1` [sofosbuvir], the activation at 10 µM on 348 GPCRs [1] (setting [13]) is 0.561%; on 348 GPCRs [2] (setting [14]), -2.06%; at 348 GPCRs [3] (setting [15]), -2.01%; on 348 GPCRs [4] (setting [16]), -2.48%; on 348 GPCRs [6] (setting [18]), -2.4%; on 348 GPCRs [7] (setting [19]), 2.52%. Further, at 348 GPCRs [5] (setting [17]), the activation at 100 µM is -3.71%.

As for `CCC(CC)COC(=O)[C@H](C)N[P@](=O)(OC[C@H]1O[C@@](C#N)(c2ccc3c(N)ncnn23)[C@H](O)[C@@H]1O)Oc1ccccc1` [remdesivir], the activation at 10 µM on 348 GPCRs [1] (setting [13]) was 1.57%; at 348 GPCRs [2] (setting [14]), -3.65%; at 348 GPCRs [3] (setting [15]), -1.11%; on 348 GPCRs [4] (setting [16]), 8.13%; on 348 GPCRs [6] (setting [18]) it was 2.72%; at 348 GPCRs [7] (setting [19]), 1.2%. On 348 GPCRs [5] (setting [17]), the activation at 100 µM was 6.64%.

As to `N#C[C@@]1(c2ccc3c(N)ncnn23)O[C@H](CO)[C@@H](O)[C@H]1O` [GS441524], the activation at 10 µM is -3% on 348 GPCRs [1] (setting [8]); -2.28% at 348 GPCRs [2] (setting [9]); -1.24% at 348 GPCRs [3] (setting [10]); -0.949% on 348 GPCRs [4] (setting [20]); -3.33% at 348 GPCRs [6] (setting [21]); 1.08% on 348 GPCRs [7] (setting [12]). Moreover, at 348 GPCRs [5] (setting [11]), the activation at 100 µM stood at 2.04%.

For `CC(C)C(=O)OC[C@H]1O[C@@H](n2ccc(NO)nc2=O)[C@H](O)[C@@H]1O` [molnupiravir], the activation at 10 µM at 348 GPCRs [1] (setting [8]) is 1.04%; on 348 GPCRs [2] (setting [9]) it was -2.68%; at 348 GPCRs [3] (setting [10]), -2.47%; at 348 GPCRs [4] (setting [20]), -0.00545%; at 348 GPCRs [6] (setting [21]), -1.07%; on 348 GPCRs [7] (setting [12]), -0.396%. Besides, the activation at 100 µM on 348 GPCRs [5] (setting [11]) is -2.83%.
